Data: patent US8455186B2, “Method of detection of microorganisms with enhanced bacteriophage amplification” (priority 2007, dated 2013)

What was measured:
S. aureus strains [1] = assay: Stimulation of bacteriophage amplification by fatty acid compounds, all hosts tested; details: for effect on bacteriophage amplification: fatty acid compound added to growth medium
[2] = tested on: clinical MRSA (methicillin-resistant S. aureus) isolates; assay: Phage amplification in MRSA strains with cefoxitin and/or lauric acid (FIG. 3)
Source text: In FIG. 3, each symbol represents a clinical MRSA (methicillin-resistant S. aureus) isolate able to grow in the presence of β-lactam antibiotics such as cefoxitin. The first column 62 (circles) indicates amplification by MRSA strains with no cefoxitin and no lauric acid. The second column 64 (squares) indicates amplification with added cefoxitin. […] The third column 66 (diamonds) indicates amplification with added lauric acid. The fourth column 70 (x's) indicate amplification with added lauric acid and cefoxitin.

[3] = tested on: clinical isolates of S. aureus (poorest hosts for bacteriophage amplification); assay: Bacteriophage amplification (MP112 and MP115) on poor or restrictive S. aureus hosts with lauric acid (FIG. 1)
Source text: The 28 strains in this study were chosen from a collection of 202 clinical isolates as the poorest hosts for bacteriophage amplification.

[4] = tested on: clinical isolates of S. aureus (good bacteriophage hosts); assay: Bacteriophage amplification on permissive (good) S. aureus hosts with lauric acid (FIG. 2)
S. aureus strains [5] = assay: Bacteriophage mean amplification versus sodium pyruvate concentration (FIG. 5); format: cell-based, Staphylococcus aureus
[6] = tested on: panel of 32 S. aureus strains; assay: Bacteriophage sensitivity versus sodium pyruvate concentration (FIG. 4)

Compound: CCCCCCCCCC(=O)O [capric acid]
- effect on bacteriophage amplification (S. aureus strains [1]): positively stimulate bacteriophage amplification

Compound: CCCCCC(=O)O [caproic acid]
- effect on bacteriophage amplification (S. aureus strains [1]): positively stimulate bacteriophage amplification

Compound: CCCCCCCC(=O)O [caprylic acid]
- effect on bacteriophage amplification (S. aureus strains [1]): positively stimulate bacteriophage amplification

Compound: CO[C@@]1(NC(=O)Cc2cccs2)C(=O)N2C(C(=O)O)=C(COC(N)=O)CS[C@@H]21 [cefoxitin, reference compound]
- effect on phage amplification in MRSA strains ([2]; added cefoxitin, no lauric acid): suppression of phage amplification

Compound: CCCCCCCCCCCC(=O)OCC(O)CO (stereo not shown) [glycerol monolaurate]
- effect on bacteriophage amplification (S. aureus strains [1]): positively stimulate bacteriophage amplification

Compound: CCCCCCCCCCCC(=O)O [lauric acid]
- effect on phage amplification in MRSA strains ([2]; added lauric acid and cefoxitin): relieves suppression of phage amplification by cefoxitin
- S. aureus strains tested showing stimulation of bacteriophage amplification (S. aureus strains [1]; in response to lauric acid, strains tested to date): more than 80%
- average level of amplification (output pfu/ml divided by input pfu/ml) ([3]; 30 μg/ml lauric acid, 28 poor-host strains, four hours at 35°, three-fold with no lauric acid): 45 fold
- effect on amplification on poor or restrictive S. aureus hosts ([3]; FIG. 1 legend): improves amplification
- effect on bacteriophage amplification on permissive S. aureus hosts ([4]; FIG. 2 legend): increases bacteriophage amplification
- average amplification ([4]; with the addition of lauric acid (5-30 μg/ml), good hosts, 69-fold without): over 100 fold

Compound: CCCCC/C=C\C/C=C\CCCCCCCC(=O)O [linoleic acid]
- effect on bacteriophage amplification (S. aureus strains [1]): positively stimulate bacteriophage amplification

Compound: CCCCCCCCCCCCCC(=O)O [myristic acid]
- effect on bacteriophage amplification (S. aureus strains [1]): positively stimulate bacteriophage amplification

Compound: CCCCCCCC/C=C\CCCCCCCC(=O)O [oleic acid]
- effect on bacteriophage amplification (S. aureus strains [1]): positively stimulate bacteriophage amplification

Compound: CC(=O)C(=O)[O-].[Na+] [sodium pyruvate]
- effect on mean amplification of the bacteriophage (S. aureus strains [5]; about 10 mmol/L to 60 mmol/L sodium pyruvate): increased significantly
- mean amplification of the bacteriophage (S. aureus strains [5]; about 30 mmol/L sodium pyruvate, about 92 without): 150
- effect on phage sensitivity ([6]; 10 mmol/L to 50 mmol/L sodium pyruvate, wide variety of S. aureus strains): significantly increase phage sensitivity
- phage sensitivity ([6]; 15 mmol/L to 31 mmol/L sodium pyruvate): above 90%
- increase of sensitivity over sensitivities without sodium pyruvate ([6]; 27 mmol/L sodium pyruvate): about 15%
